Laboratory results: US20260083865A1, “PROSTATE SPECIFIC MEMBRANE ANTIGEN (PSMA) LIGANDS AND USE THEREOF” (priority 2022, published 2026)
Like-named read-outs stand apart in the source and are kept apart here. Blank lines part the entries; values can stand above or below the compound they belong to. Numbered stars: 1 amine (or outer) side, 2 acyl side, 3 side chain; on linkers, the order of the positions; unused ones are H or OH. Bridge positions count the residues as written; N and C are the ends. Square brackets hold non-standard residues; d marks the D form. Peptide text beside a SMILES is read from it. * marks the point of attachment. ξ: configuration not given here. X3 = O=C(O)CN1CCN(CC(=O)O)CCN(CC(=O)NCCCOCCOCCOCCCN*)CCN(CC(=O)O)CC1; DOTA = O=C(O)CN1CCN(CC(=O)O)CCN(CC(=O)*)CCN(CC(=O)O)CC1; Trp(5-Cl) = N[C@@H](Cc1c[nH]c2ccc(Cl)cc12)C(=O)O; Phe(4-Cl) = N[C@@H](Cc1ccc(Cl)cc1)C(=O)O; Phe(4-F) = N[C@@H](Cc1ccc(F)cc1)C(=O)O; Arg(Me) = CNC(=N)NCCC[C@H](N)C(=O)O; X1 = O=C(CC1CCN([*:1])CC1)[*:2]; Lys(Me) = CNCCCC[C@H](N)C(=O)O; d(αMeS) = C[C@@](N)(CO)C(=O)O; Suc = O=C(CCC(=O)[*:2])[*:1]; Tle = CC(C)(C)[C@H](N)C(=O)O; ξL = CC(C)CC(N)C(=O)O; Aib = CC(C)(N)C(=O)O

Columns and labels:
[1] = biological target: T1, PSMA-expressing C4-2 cells (Homo sapiens, UniProt Q04609); experiment: FACS binding assay (competition with 50 nM PSM-0183); details: for IC50: read-out: pIC50 [C4-2] CAT (converted)
T1 construct: PSMA-expressing C4-2 cells (ATCC, Cat. No. CRL-3314) were cultured in RPMI-1640; host or cells: C4-2 cells
In short: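 Competition format: fluorescent tracer PSM-0183 (50 nM) displaced from PSMA on C4-2 cells by a test compound titration over 1 h at 4 °C. Bound tracer was quantified as flow-cytometric AF488 median fluorescence after washing. Four-parameter logistic fits of MFI data gave IC50 and pIC50.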

[2] = biological target: T2, Fc-fusion protein of human PSMA (hPSMA-Fc) (Homo sapiens, UniProt Q04609); experiment: Surface plasmon resonance assay (Biacore T200, single cycle kinetic); format: binding; details: for Kd: read-out: pKD CAT (converted)
T2 construct: purchased Acro Biosystems PSA-H5264
In short: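 KD, expressed as pKD, came from 1:1 Langmuir fits of reference- and buffer-blank-subtracted SPR data. The runs were single-cycle kinetics at 25° C in HBST/0.1% DMSO over human PSMA-Fc, captured to ~1000 RU on a peptide-coated CM5 surface and regenerated with 10 mM glycine pH 1.5.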

[3] = FACS binding, C4-2 cells, competition with 50 nM PSM-0183, category
[4] = SPR, hPSMA-Fc, single cycle kinetic, 25° C., category
[5] = FACS binding, PSMA-expressing C4-2 cells, pIC50 category
[6] = PSMA SPR assay, hPSMA-Fc, 25° C., pKD category

T2 sequence (Q04609 44-750 limits assumed): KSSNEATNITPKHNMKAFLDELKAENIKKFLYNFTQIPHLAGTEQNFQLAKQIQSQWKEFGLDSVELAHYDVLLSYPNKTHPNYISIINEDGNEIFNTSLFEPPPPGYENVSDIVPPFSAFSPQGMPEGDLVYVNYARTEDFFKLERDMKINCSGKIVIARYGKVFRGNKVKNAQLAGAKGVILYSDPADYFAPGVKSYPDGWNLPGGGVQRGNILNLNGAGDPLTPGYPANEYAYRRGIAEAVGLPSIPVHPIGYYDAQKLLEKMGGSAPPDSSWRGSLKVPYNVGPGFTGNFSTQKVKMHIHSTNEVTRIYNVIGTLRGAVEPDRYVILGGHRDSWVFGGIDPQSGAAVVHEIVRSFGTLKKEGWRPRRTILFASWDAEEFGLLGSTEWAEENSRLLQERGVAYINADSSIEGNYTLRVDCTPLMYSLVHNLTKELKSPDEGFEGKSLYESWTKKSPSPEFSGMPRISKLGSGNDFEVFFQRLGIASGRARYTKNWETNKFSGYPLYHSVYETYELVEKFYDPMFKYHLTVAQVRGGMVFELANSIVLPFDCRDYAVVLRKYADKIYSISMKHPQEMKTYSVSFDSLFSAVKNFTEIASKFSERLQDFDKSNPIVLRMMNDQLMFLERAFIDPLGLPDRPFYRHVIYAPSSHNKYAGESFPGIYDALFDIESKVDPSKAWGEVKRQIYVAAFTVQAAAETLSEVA
T1 sequence (Q04609 whole entry): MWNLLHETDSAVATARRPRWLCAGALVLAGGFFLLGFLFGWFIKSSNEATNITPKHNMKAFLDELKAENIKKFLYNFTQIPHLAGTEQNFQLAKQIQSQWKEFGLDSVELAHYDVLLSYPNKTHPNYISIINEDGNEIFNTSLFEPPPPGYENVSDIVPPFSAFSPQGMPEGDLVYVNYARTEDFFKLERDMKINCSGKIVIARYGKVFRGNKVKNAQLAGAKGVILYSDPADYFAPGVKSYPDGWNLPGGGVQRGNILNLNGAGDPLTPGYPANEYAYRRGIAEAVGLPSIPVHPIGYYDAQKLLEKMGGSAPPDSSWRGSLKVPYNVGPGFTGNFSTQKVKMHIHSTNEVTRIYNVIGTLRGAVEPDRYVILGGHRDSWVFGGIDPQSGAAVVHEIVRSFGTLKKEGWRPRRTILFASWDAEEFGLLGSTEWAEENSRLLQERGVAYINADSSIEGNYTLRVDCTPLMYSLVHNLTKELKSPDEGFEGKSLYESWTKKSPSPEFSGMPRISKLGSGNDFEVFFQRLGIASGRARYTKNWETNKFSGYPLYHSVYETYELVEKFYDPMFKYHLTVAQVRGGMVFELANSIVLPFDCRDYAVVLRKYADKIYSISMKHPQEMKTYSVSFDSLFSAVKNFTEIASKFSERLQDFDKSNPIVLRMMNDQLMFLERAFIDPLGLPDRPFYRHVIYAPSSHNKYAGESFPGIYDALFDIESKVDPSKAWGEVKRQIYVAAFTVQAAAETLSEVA

Compound: InDOTA-Cmp-Thr-Aib-Phe-[Cys-Lys-Arg-Aib-Asn-Cys]-Tle-Thr-NH2 [PSM-0195]
pIC50 [C4-2] CAT [1, 3]: A (pIC50 values >6.7)
pKD CAT [2, 4]: A (pKD values >7.9)

Compound: InLSC-Cmp-Thr-Aib-Pcf-[Cys-Lys(Me)-Arg(Me)-Aib-Asn-Cys]-Tle-Thr-NH2 [PSM-0604]
pIC50 [C4-2] CAT ([1]; FACS binding, C4-2 cells, category): A (pIC50 values >6.7)
pKD CAT ([2]; PSMA SPR assay, category): A (pKD values >7.9)

Compound: C[C@@H](O)[C@H](NC(=O)[C@@H](NC(=O)[C@@H]1CSSC[C@H](NC(=O)[C@H](Cc2ccc(Cl)cc2)NC(=O)[C@@](C)(CO)NC(=O)[C@@H](NC(=O)CC2CCN(C(=O)CN3CCN(CC(=O)O)CCN(CC(=O)O)CCN(CC(=O)O)CC3)CC2)[C@@H](C)O)C(=O)N[C@@H](CCCCN)C(=O)N[C@@H](CCCNC(=N)N)C(=O)NC(C)(C)C(=O)N[C@@H](CC(N)=O)C(=O)N1)C(C)(C)C)C(N)=O [PSM-0256, DOTA-Cmp-Thr-ams-Pcf-[Cys-Lys-Arg-Aib-Asn-Cys]-Tle-Thr-NH2] ({DOTA}-[X1]T[d(αMeS)][Phe(4-Cl)]CKR[Aib]NC[Tle]T-NH2; disulfide 5-10)
IC50 [1, 3]: < 200 nM
Kd [2, 4]: < 12.6 nM

Continued, values first:

IC50 ([1]; pIC50 category of FACS binding, C4-2 cells): 200 to 1260 nM
Kd ([2]; pKD category for PSMA SPR activity assay, hPSMA-Fc, 25° C.): 126 to 501 nM
Compound: CC(=O)N[C@H](C(=O)NC(C)(C)C(=O)N[C@@H](Cc1ccccc1)C(=O)N[C@H]1CSSC[C@@H](C(=O)N[C@H](C(=O)N[C@H](C(N)=O)[C@@H](C)O)C(C)(C)C)NC(=O)[C@H](CC(N)=O)NC(=O)[C@H](CCCCNC(=O)CN2CCN(CC(=O)O)CCN(CC(=O)O)CCN(CC(=O)O)CC2)NC(=O)[C@H](CCC(N)=O)NC(=O)[C@H](CCCCN)NC1=O)[C@@H](C)O [PSM-0385, Ac-Thr-Aib-Pho-[Cys-Lys-Gln-Lys(DOTA)-Asn-Cys]-Tle-Thr-NH2] (Ac-T[Aib]FCKQK(DOTA)NC[Tle]T-NH2; disulfide 4-9)

IC50 [1, 5]: 200 to 1260 nM
Kd [2, 6]: 126 to 501 nM
Compound: CNCCCC[C@@H]1NC(=O)[C@@H](NC(=O)[C@H](Cc2c[nH]c3ccc(Cl)cc23)NC(=O)C(C)(C)NC(=O)[C@@H](NC(=O)CC2CCN(C(=O)CN3CCN(CC(=O)O)CCN(CC(=O)O)CCN(CC(=O)O)CC3)CC2)[C@@H](C)O)CSSC[C@@H](C(=O)N[C@H](C(=O)N[C@H](C(N)=O)[C@@H](C)O)C(C)(C)C)NC(=O)[C@H](CC(N)=O)NC(=O)C(C)(C)NC(=O)[C@H](CCCNC(=N)NC)NC1=O [PSM-0308, DOTA-Cmp-Thr-Aib-5Clw-[Cys-Lys(Me)-Arg(Me)-Aib-Asn-Cys]-Tle-Thr-NH2] ({DOTA}-[X1]T[Aib][Trp(5-Cl)]C[Lys(Me)][Arg(Me)][Aib]NC[Tle]T-NH2; disulfide 5-10)

IC50 [1, 5]: 200 to 1260 nM
Kd [2, 6]: 126 to 501 nM
Compound: CC(C)CC(NC(=O)[C@@H]1CSSC[C@H](NC(=O)[C@H](Cc2ccccc2)NC(=O)[C@H](C)NC(=O)[C@@H](NC(=O)CCC(=O)NCCCOCCOCCOCCCNC(=O)CN2CCN(CC(=O)O)CCN(CC(=O)O)CCN(CC(=O)O)CC2)[C@@H](C)O)C(=O)N[C@@H](CCCCN)C(=O)N[C@@H](CCCNC(=N)N)C(=O)N[C@@H](C)C(=O)N[C@@H](CC(N)=O)C(=O)N1)C(=O)N[C@H](C(N)=O)[C@@H](C)O (stereo partly drawn) [PSM-0305, DOTA-Ttds-Thr-Ala-Phe-[Cys-Lys-Arg-Ala-Asn-Cys]-Lou-Thr-NH2] ({X3-Suc}-TAFCKRANC[ξL]T-NH2; disulfide 4-9)

IC50 [1, 5]: < 200 nM
Kd [2, 6]: < 12.6 nM
Compound: CC(=O)N[C@H](C(=O)NC(C)(C)C(=O)N[C@@H](Cc1ccc(F)cc1)C(=O)N[C@H]1CSSC[C@@H](C(=O)N[C@H](C(=O)N[C@H](C(N)=O)[C@@H](C)O)C(C)(C)C)NC(=O)[C@H](CC(N)=O)NC(=O)C(C)(C)NC(=O)[C@H](CCCNC(=N)N)NC(=O)[C@H](CCCCN)NC1=O)[C@@H](C)O [PSM-0294, Ac-Thr-Aib-Pff-[Cys-Lys-Arg-Aib-Asn-Cys]-Tle-Thr-NH2] (Ac-T[Aib][Phe(4-F)]CKR[Aib]NC[Tle]T-NH2; disulfide 4-9)
